From patent US10005774B2, “Syk inhibitors” (Gilead Sciences, Inc., priority 2013, dated 2018)

These compounds were tested against Syk (Homo sapiens, UniProt P43405) (assay: High Throughput Syk Biochemical Assay (KinEASE TR-FRET)). Conditions: TABLE D, 20 μM ATP, 1 μM biotinylated peptide, 0.015 nM Syk, 30 min at room temperature, read-out: IC50.
Procedure: High Throughput Syk Biochemical Assay
Syk activity was measured using KinEASE (Cisbio), a time-resolved fluorescence resonance energy transfer (TR-FRET) immunoassay. In this assay. Syk-catalyzes the phosporylation of a XL665-labeled peptide substrate. Europium conjugated phospho-tyrosine specific antibody binds the resulting phosphorylated peptide. Formation of phosphorylated peptide is quantified by TR-FRET with Europium as the donor and XL665 the acceptor in a 2-step endpoint assay. In brief, test compounds serially diluted in DMSO were delivered into Corning white, low volume, non-binding 384 well plates using the Echo 550 acoustic liquid dispenser (Labcyte®). Syk enzyme and substrates were dispensed into assay plates using a Multi-Flo (Bio-Tek Instruments). […] Percent inhibition was calculated as follows: % Inhibition=100×(RatioSample−Ratio0% Inhibition)/(Ratio100% Inhibition−Ratio0% Inhibition)
COc1ccc(-c2cc3ncn(C)c3c(O[C@H](C)[C@H]3CNC(=O)C3)n2)cc1C#N showed an IC50 of 16.7 nM. C[C@@H](Oc1nc(-c2ccc(N3CCOCC3)nc2)cc2ncn(C)c12)[C@H]1CNC(=O)C1 was tested, and the IC50 was 11.5 nM. For C=CC[C@@H](Oc1nc(-c2cnn(C(C)(C)C)c2)cc2ncn(C)c12)[C@H]1CNC(=O)C1, the IC50 was 18.9 nM. In the case of CC[C@@H](Oc1nc(-c2ccc(OC)c(OC)c2)cc2ncn(C)c12)[C@H]1CNC(=O)C1, the IC50 is reported as 7.63 nM. C[C@@H](Oc1cc(-c2cnn(CC(F)F)c2)cc2ncsc12)[C@H]1CNC(=O)C1 (stereo in doubt) [(R)-4-((R)-1-((5-(1-(2,2-difluoroethyl)-1H-pyrazol-4-yl)benzo[d]thiazol-7-yl)oxy)ethyl)pyrrolidin-2-one] showed an IC50 of 1.24 nM. With Cc1nc2cc(-c3cnn(C(C)(C)C)c3)cc(O[C@H](C)[C@H]3CNC(=O)C3)c2s1 (stereo in doubt) [(R)-4-((R)-1-((5-(1-(tert-butyl)-1H-pyrazol-4-yl)-2-methylbenzo[d]thiazol-7-yl)oxy)ethyl)pyrrolidin-2-one] the IC50 was 22.2 nM. Compound C[C@@H](Oc1cc(-c2cnn(C(C)(C)C)c2)cc2ncsc12)[C@H]1CNC(=O)C1 (stereo in doubt) [(R)-4-((R)-1-((5-(1-(tert-butyl)-1H-pyrazol-4-yl)benzo[d]thiazol-7-yl)oxy)ethyl)pyrrolidin-2-one] has an IC50 of 0.894 nM. Compound C[C@@H](Oc1cc(-c2cnn(C3CCOCC3)c2)cc2ncsc12)[C@H]1CNC(=O)C1 (stereo in doubt) [(R)-4-((R)-1-((5-(1-(tetrahydro-2H-pyran-4-yl)-1H-pyrazol-4-yl)benzo[d]thiazol-7-yl)oxy)ethyl)pyrrolidin-2-one] has an IC50 of 0.699 nM. C[C@@H](Oc1cc(-c2cnn(C3CCC3)c2)cc2ncsc12)[C@H]1CNC(=O)C1 (stereo in doubt) [(R)-4-((R)-1-((5-(1-cyclobutyl-1H-pyrazol-4-yl)benzo[d]thiazol-7-yl)oxy)ethyl)pyrrolidin-2-one] gave an IC50 of 0.693 nM. Work on CC(C)n1ccc(-c2cc(O[C@H](C)[C@H]3CNC(=O)C3)c3scnc3c2)n1 (stereo in doubt) [(R)-4-((R)-1-((5-(1-isopropyl-1H-pyrazol-3-yl)benzo[d]thiazol-7-yl)oxy)ethyl)pyrrolidin-2-one] yielded an IC50 of 2.52 nM. In the case of CC(C)n1cc(-c2cc(O[C@H](C)[C@H]3CNC(=O)C3)c3scnc3c2)cn1 (stereo in doubt) [(R)-4-((R)-1-((5-(1-isopropyl-1H-pyrazol-4-yl)benzo[d]thiazol-7-yl)oxy)ethyl)pyrrolidin-2-one], the IC50 is reported as 0.697 nM. Compound C[C@@H](Oc1cc(-c2cc3c(cnn3C)s2)cc2ncsc12)[C@H]1CNC(=O)C1 (stereo in doubt) [(R)-4-((R)-1-((5-(1-methyl-1H-thieno[3,2-c]pyrazol-5-yl)benzo[d]thiazol-7-yl)oxy)ethyl)pyrrolidin-2-one] has an IC50 of 2.97 nM. In the case of COc1ccc(-c2cc(O[C@H](C)[C@H]3CNC(=O)C3)c3scnc3c2)cc1OC (stereo in doubt) [(R)-4-((R)-1-((5-(3,4-dimethoxyphenyl)benzo[d]thiazol-7-yl)oxy)ethyl)pyrrolidin-2-one], the IC50 is reported as 5 nM. C[C@@H](Oc1cc(-c2ccc(N3CCN(C4COC4)CC3)cc2)cc2ncsc12)[C@H]1CNC(=O)C1 (stereo in doubt) [(R)-4-((R)-1-((5-(4-(4-(oxetan-3-yl)piperazin-1-yl)phenyl)benzo[d]thiazol-7-yl)oxy)ethyl)pyrrolidin-2-one] was tested, and the IC50 was 0.681 nM. In the case of C[C@@H](Oc1cc(-c2ccc(N3CCOCC3)cc2)cc2ncsc12)[C@H]1CNC(=O)C1 (stereo in doubt) [(R)-4-((R)-1-((5-(4-morpholinophenyl)benzo[d]thiazol-7-yl)oxy)ethyl)pyrrolidin-2-one], the IC50 is reported as 1.82 nM. Work on COc1ccc(-c2cc(O[C@H](C)[C@H]3CNC(=O)C3)c3scnc3c2)nc1OC (stereo in doubt) [(R)-4-((R)-1-((5-(5,6-dimethoxypyridin-2-yl)benzo[d]thiazol-7-yl)oxy)ethyl)pyrrolidin-2-one] yielded an IC50 of 0.689 nM. C[C@@H](Oc1cc(-c2ccc(N3CCN(C4COC4)CC3)cn2)cc2ncsc12)[C@H]1CNC(=O)C1 (stereo in doubt) [(R)-4-((R)-1-((5-(5-(4-(oxetan-3-yl)piperazin-1-yl)pyridin-2-yl)benzo[d]thiazol-7-yl)oxy)ethyl)pyrrolidin-2-one] was tested, and the IC50 was 1.73 nM. Work on C[C@@H](Oc1cc(-c2ccc(N3CCN(C4CCOCC4)CC3)cn2)cc2ncsc12)[C@H]1CNC(=O)C1 (stereo in doubt) [(R)-4-((R)-1-((5-(5-(4-(tetrahydro-2H-pyran-4-yl)piperazin-1-yl)pyridin-2-yl)benzo[d]thiazol-7-yl)oxy)ethyl)pyrrolidin-2-one] yielded an IC50 of 2.62 nM. CC(=O)N1CCN(c2ccc(-c3cc(O[C@H](C)[C@H]4CNC(=O)C4)c4scnc4c3)nc2)CC1 (stereo in doubt) [(R)-4-((R)-1-((5-(5-(4-acetylpiperazin-1-yl)pyridin-2-yl)benzo[d]thiazol-7-yl)oxy)ethyl)pyrrolidin-2-one] was tested, and the IC50 was 1.59 nM. For C[C@@H](Oc1cc(-c2ccc(N3CCOCC3)cn2)cc2ncsc12)[C@H]1CNC(=O)C1 (stereo in doubt) [(R)-4-((R)-1-((5-(5-morpholinopyridin-2-yl)benzo[d]thiazol-7-yl)oxy)ethyl)pyrrolidin-2-one], the IC50 was 1.88 nM. With C[C@H](Oc1cc(-c2cnc(C(C)(C)C)s2)cc2ncsc12)[C@@H]1CNC(=O)C1 (stereo in doubt) [(S)-4-((S)-1-((5-(2-(tert-butyl)thiazol-5-yl)benzo[d]thiazol-7-yl)oxy)ethyl)pyrrolidin-2-one] the IC50 was 1.5 nM. C[C@@H](Oc1cc(-c2ccc(N3CCN(C(=O)OC(C)(C)C)CC3)cc2)cc2ncsc12)[C@H]1CNC(=O)C1 (stereo in doubt) [tert-butyl 4-(4-(7-((R)-1-((R)-5-oxopyrrolidin-3-yl)ethoxy)benzo[d]thiazol-5-yl)phenyl)piperazine-1-carboxylate] gave an IC50 of 9.04 nM. For C[C@@H](Oc1cc(-c2ccc(N3CCN(C(=O)OC(C)(C)C)CC3)cn2)cc2ncsc12)[C@H]1CNC(=O)C1 (stereo in doubt) [tert-butyl 4-(6-(7-((R)-1-((R)-5-oxopyrrolidin-3-yl)ethoxy)benzo[d]thiazol-5-yl)pyridin-3-yl)piperazine-1-carboxylate], the IC50 was 5.16 nM. Work on COc1cc(-c2cc3ncn(C)c3c(O[C@H](C)[C@H]3CNC(=O)C3)n2)ccc1C#N [2-methoxy-4-(3-methyl-4-((R)-1-((R)-5-oxopyrrolidin-3-yl)ethoxy)-3H-imidazo[4,5-c]pyridin-6-yl)benzonitrile] yielded an IC50 of 74.2 nM. Work on C[C@@H](Oc1nc(-c2ccc(C#N)cc2)cc2ncn(C)c12)[C@H]1CNC(=O)C1 [4-(3-methyl-4-((R)-1-((R)-5-oxopyrrolidin-3-yl)ethoxy)-3H-imidazo[4,5-c]pyridin-6-yl)benzonitrile] yielded an IC50 of 28.4 nM. C[C@@H](Oc1nc(-c2cc[nH]c(=O)c2)cc2ncn(C)c12)[C@H]1CNC(=O)C1 [4-(3-methyl-4-((R)-1-((R)-5-oxopyrrolidin-3-yl)ethoxy)-3H-imidazo[4,5-c]pyridin-6-yl)pyridin-2(1H)-one] gave an IC50 of 97.5 nM.

Same assay, conditions: table 'ALL NEW COMPOUNDS IN 2014', 20 μM ATP, 1 μM biotinylated peptide, 0.015 nM Syk, 30 min at room temperature, read-out: Syk IC50
Compound C[C@@H](Oc1nc(-c2ccc3oc(=O)n(C)c3c2)cc2ncn(C3CC3)c12)[C@H]1CNC(=O)C1 has an IC50 of 14.4 nM. C[C@@H](Oc1nc(-c2ccc3c(c2)n(C)c(=O)n3C)cc2ncn(C3CC3)c12)[C@H]1CNC(=O)C1 was tested, and the IC50 was 4.84 nM. Cc1ncc(-c2cc(O[C@H](C)[C@H]3CNC(=O)C3)c3c(c2)ncn3C2CC2)[nH]1 showed an IC50 of 20.9 nM. For C[C@@H](Oc1nc(-c2cnn(C(C)(C)CO)c2)cc2ncn(C3CC3)c12)[C@H]1CNC(=O)C1, the IC50 was 3.43 nM. Work on C[C@@H](Oc1nc(-c2cnn(CC(C)(C)O)c2)cc2ncn(C3CC3)c12)[C@H]1CNC(=O)C1 yielded an IC50 of 9.65 nM. With C[C@@H](Oc1nc(-c2cnn(C3COC3)c2)cc2ncn(C3CC3)c12)[C@H]1CNC(=O)C1 the IC50 was 4.65 nM. Work on C[C@@H](Oc1nc(-c2cnn(-c3ccncc3)c2)cc2ncn(C3CC3)c12)[C@H]1CNC(=O)C1 yielded an IC50 of 8.29 nM. C[C@@H](Oc1nc(-c2ccc3c(C4CC4)n[nH]c3c2)cc2ncn(C3CC3)c12)[C@H]1CNC(=O)C1 showed an IC50 of 6.12 nM. With C[C@@H](Oc1nc(-c2ccc(C3(O)CC3)cc2)cc2ncn(C3CC3)c12)[C@H]1CNC(=O)C1 the IC50 was 8.52 nM. In the case of C[C@@H](Oc1nc(-c2ccccc2)cc2ncn(C3CC3)c12)[C@H]1CNC(=O)C1, the IC50 is reported as 12.5 nM. In the case of C[C@@H](Oc1nc(-c2ccc3c(c2)N(C)C(=O)OC3(C)C)cc2ncn(C)c12)[C@H]1CNC(=O)C1 [1,4,4-trimethyl-7-(3-methyl-4-((R)-1-((R)-5-oxopyrrolidin-3-yl)ethoxy)-3H-imidazo[4,5-c]pyridin-6-yl)-1H-benzo[d][1,3]oxazin-2(4H)-one], the IC50 is reported as 2.5 nM. C[C@@H](Oc1nc(-c2ccc3c(c2)NC(=O)OC3(C)C)cc2ncn(C)c12)[C@H]1CNC(=O)C1 [4,4-dimethyl-7-(3-methyl-4-((R)-1-((R)-5-oxopyrrolidin-3-yl)ethoxy)-3H-imidazo[4,5-c]pyridin-6-yl)-1H-benzo[d][1,3]oxazin-2(4H)-one] showed an IC50 of 0.935 nM. Compound C[C@@H](Oc1cc(-c2ccc(N3CCN(C4COC4)CC3)c(C#N)c2)cc2ncn(C3CC3)c12)[C@H]1CNC(=O)C1 [5-(1-cyclopropyl-7-((R)-1-((R)-5-oxopyrrolidin-3-yl)ethoxy)-1H-benzo[d]imidazol-5-yl)-2-(4-(oxetan-3-yl)piperazin-1-yl)benzonitrile] has an IC50 of 3.2 nM.
